Data published in ChEMBL document CHEMBL1201862, “PubChem BioAssay data set” (2004).
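All cell lines were grown in 96-well plates and treated with compound for 48 hours. GI50 marks 50% less growth.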 The source made the active and inactive calls. No stated cut-off is given here; in the data, active = GI50 up to about 1.1 µM and inactive = higher.

Key:
Assay in all cases: DTP human tumour cell line panel, 48 h
A498 = test system: A498
ACHN = test system: ACHN
CCRF-CEM = test system: CCRF-CEM
HCC 2998 = test system: HCC 2998
HCT-116 = test system: HCT-116
HT-29 = test system: HT-29
IGROV-1 = test system: IGROV-1
LOX IMVI = test system: LOX IMVI
M14 = test system: M14
MDA-N = test system: MDA-N
MOLT-4 = test system: MOLT-4
NCI-H226 = test system: NCI-H226
NCI/ADR-RES = test system: NCI/ADR-RES
OVCAR-3 = test system: OVCAR-3
RXF 393 = test system: RXF 393
SK-MEL-2 = test system: SK-MEL-2
SK-MEL-5 = test system: SK-MEL-5
SNB-19 = test system: SNB-19
UO-31 = test system: UO-31
OVCAR-4 = test system: OVCAR-4

Measured: GI50

O=Cc1ccc(-c2ccc(S(=O)(=O)O)cc2)o1
inactive: A498 > 100 µM | ACHN > 100 µM | CCRF-CEM > 10 µM | HCC 2998 > 100 µM | HCT-116 > 100 µM | HT-29 > 100 µM | IGROV-1 > 100 µM | LOX IMVI > 100 µM | M14 > 100 µM | MDA-N > 100 µM | MOLT-4 > 100 µM | NCI-H226 > 100 µM | NCI/ADR-RES > 100 µM | OVCAR-3 > 100 µM | RXF 393 > 100 µM | SK-MEL-2 > 100 µM | SK-MEL-5 > 100 µM | SNB-19 > 100 µM | UO-31 > 100 µM

O=C(CCc1cc(O)cc(O)c1)NCCc1cc(O)cc(O)c1
inactive: A498 > 100 µM | ACHN > 100 µM | CCRF-CEM > 10 µM | HCC 2998 > 100 µM | HCT-116 > 100 µM | HT-29 > 100 µM | IGROV-1 > 100 µM | LOX IMVI > 100 µM | M14 > 100 µM | MDA-N > 100 µM | MOLT-4 > 100 µM | NCI-H226 > 100 µM | NCI/ADR-RES > 100 µM | OVCAR-3 > 100 µM | RXF 393 > 100 µM | SK-MEL-2 > 100 µM | SK-MEL-5 > 100 µM | SNB-19 > 100 µM | UO-31 > 100 µM

CCC(/C=C/c1ccccc1)=N\NC(=S)N/N=C(/C=C/c1ccccc1)CC
inactive: A498 20.8 µM | ACHN 34.2 µM | CCRF-CEM 7.55 µM | HCC 2998 84.1 µM | HCT-116 19 µM | HT-29 55.1 µM | IGROV-1 55.8 µM | LOX IMVI 21.3 µM | M14 46.1 µM | MDA-N 58.1 µM | MOLT-4 5.51 µM | NCI-H226 32.2 µM | NCI/ADR-RES 29.6 µM | OVCAR-3 22.9 µM | OVCAR-4 35.2 µM | RXF 393 38.5 µM | SK-MEL-5 23 µM | SNB-19 63 µM | UO-31 13 µM

Cc1nc2sccn2c1/C=C1/C(=O)Nc2cccc(Cl)c21
inactive: A498 87.3 µM | ACHN > 100 µM | CCRF-CEM > 100 µM | HCC 2998 > 100 µM | HCT-116 89.9 µM | HT-29 56.2 µM | IGROV-1 53.6 µM | LOX IMVI > 100 µM | M14 > 100 µM | MDA-N 12.6 µM | MOLT-4 > 100 µM | NCI/ADR-RES 34.2 µM | OVCAR-3 > 100 µM | RXF 393 > 100 µM | SK-MEL-2 > 100 µM | SK-MEL-5 45.7 µM | SNB-19 > 100 µM | UO-31 > 100 µM

CNC(=O)Nn1c(SC)nc2ccccc21
inactive: A498 > 100 µM | ACHN > 100 µM | CCRF-CEM > 100 µM | HCC 2998 > 100 µM | HCT-116 > 100 µM | HT-29 > 100 µM | IGROV-1 > 100 µM | LOX IMVI > 100 µM | M14 > 100 µM | MDA-N > 100 µM | MOLT-4 > 100 µM | NCI-H226 > 100 µM | NCI/ADR-RES > 100 µM | OVCAR-4 > 100 µM | RXF 393 > 100 µM | SK-MEL-2 > 100 µM | SK-MEL-5 > 100 µM | SNB-19 > 100 µM | UO-31 > 100 µM

COC(=O)/C=C\[C@H]1[C@H](C)N1S(=O)(=O)c1ccc(C)cc1 (stereo partly drawn)
inactive: A498 > 100 µM | ACHN > 100 µM | CCRF-CEM 91 µM | HCC 2998 > 100 µM | HCT-116 > 100 µM | HT-29 > 100 µM | IGROV-1 > 100 µM | LOX IMVI > 100 µM | M14 > 100 µM | MDA-N > 100 µM | MOLT-4 > 100 µM | NCI-H226 > 100 µM | NCI/ADR-RES > 100 µM | OVCAR-3 > 100 µM | OVCAR-4 > 100 µM | RXF 393 > 100 µM | SK-MEL-2 > 100 µM | SK-MEL-5 > 100 µM | SNB-19 > 100 µM

Cc1ccc(-c2cc(-c3c(C)nn(C)c(=O)c3N)n[nH]2)cc1
inactive: A498 28.5 µM | ACHN > 100 µM | CCRF-CEM > 100 µM | HCC 2998 > 100 µM | HCT-116 > 100 µM | HT-29 > 100 µM | IGROV-1 > 100 µM | LOX IMVI > 100 µM | M14 > 100 µM | MDA-N > 100 µM | MOLT-4 > 100 µM | NCI-H226 > 100 µM | NCI/ADR-RES > 100 µM | OVCAR-3 88.3 µM | OVCAR-4 > 100 µM | RXF 393 > 100 µM | SK-MEL-2 > 100 µM | SK-MEL-5 > 100 µM | SNB-19 > 100 µM

Cc1ccc(N2C(=O)C(=O)N(/N=C3\C(=O)Nc4ccccc43)C2=S)cc1
inactive: A498 > 100 µM | ACHN 67.6 µM | CCRF-CEM 7.96 µM | HCC 2998 93.5 µM | HCT-116 65.8 µM | HT-29 58.6 µM | IGROV-1 95.5 µM | LOX IMVI 31.6 µM | M14 > 100 µM | MDA-N 59.7 µM | MOLT-4 28.8 µM | NCI/ADR-RES 28.8 µM | OVCAR-3 64.4 µM | RXF 393 39.1 µM | SK-MEL-2 30.3 µM | SK-MEL-5 41.2 µM | SNB-19 > 100 µM | UO-31 > 100 µM

COC(=O)C1=C(O)C(C(=O)OC)[C@]2(O)[C@H](C(=O)OC)[C@H]1C[C@@H](c1ccc(Cl)cc1Cl)[C@H]2C(=O)OC (stereo partly drawn)
inactive: A498 11.4 µM | ACHN 11 µM | HCC 2998 10.1 µM | HCT-116 6.3 µM | HT-29 13.2 µM | IGROV-1 6.3 µM | LOX IMVI 5.92 µM | M14 6.24 µM | MDA-N 2.74 µM | MOLT-4 2.48 µM | NCI-H226 2.91 µM | NCI/ADR-RES 3.83 µM | OVCAR-3 5.14 µM | OVCAR-4 6.55 µM | RXF 393 7.76 µM | SK-MEL-2 4.7 µM | SK-MEL-5 4.91 µM | SNB-19 6.98 µM | UO-31 8.97 µM

O=C1OC(c2ccccc2)=NC1c1ccccc1 (stereo not drawn)
inactive: A498 > 100 µM | ACHN > 100 µM | CCRF-CEM > 100 µM | HCC 2998 > 100 µM | HCT-116 > 100 µM | HT-29 > 100 µM | IGROV-1 > 100 µM | LOX IMVI > 100 µM | M14 > 100 µM | MDA-N > 100 µM | MOLT-4 > 100 µM | NCI-H226 > 100 µM | NCI/ADR-RES > 100 µM | OVCAR-3 > 100 µM | OVCAR-4 > 100 µM | RXF 393 > 100 µM | SK-MEL-5 > 100 µM | SNB-19 > 100 µM | UO-31 > 100 µM
